# Test results as given in paper PMC8225200, “Epipregnanolone as a Positive Modulator of GABAA Receptor in Rat Cerebellar and Hippocampus Neurons” (Biomolecules, 2021).
# Experiments:
# Assay in all cases: whole-cell patch clamp, GABA-induced chloride current
# Type in all cases: cell-based
# [1] = test system: T1, GABAA receptor (native, rat cerebellar Purkinje cells); conditions: positive allosteric modulator, 2 µM GABA co-applied, pH 7.4, holding -70 mV
# T1 construct: gene Gabra1; native heteropentameric receptors in acutely isolated Purkinje neurons
# [2] = test system: T2, GABAA receptor (native, rat hippocampal CA3 pyramidal neurons); conditions: positive allosteric modulator; 2 µM GABA co-applied; pH 7.4; holding -70 mV
# T2 construct: gene Gabra1; native heteropentameric receptors in acutely isolated CA3 pyramidal neurons; subunit composition not determined
# [3] = test system: T1, GABAA receptor (native, rat cerebellar Purkinje cells); conditions: weak inhibition; 2 µM GABA co-applied; pH 7.4; holding -70 mV
smiles,measurement,setting,value
"CC(=O)[C@H]1CC[C@H]2[C@@H]3CC[C@H]4C[C@H](O)CC[C@]4(C)[C@H]3CC[C@]12C [ALLO, 3α-hydroxy-5α-pregnan-20-one]",EC50,[1]; fit to rising phase of bell-shaped curve,0.29 ± 0.06 µM
"CC(=O)[C@H]1CC[C@H]2[C@@H]3CC[C@@H]4C[C@@H](O)CC[C@]4(C)[C@H]3CC[C@]12C [Epi, 3β-hydroxy-5β-pregnan-20-one]",EC50,[2],9.3 ± 2.9 µM
same,EC50,[1],5.7 ± 1.9 µM
"CC(=O)[C@H]1CC[C@H]2[C@@H]3CC[C@H]4C[C@@H](O)CC[C@]4(C)[C@H]3CC[C@]12C [Iso, 3β-hydroxy-5α-pregnan-20-one]",% of control current at 100 μM,[3],84 ± 4%
